Data from PubChem BioAssay (NCI).
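Grown in 96-well plates, cells were treated for 48 hours with each compound at five concentrations. Insufficient inhibition: endpoint recorded as highest concentration tested. GI50 = concentration required for 50% inhibition of growth. The concentration for full growth arrest is given as TGI.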

Columns and labels:
Assay in all cases: NCI tumour cell line growth inhibition, 48 h; in the data active means GI50 below about 0.43 µM; inactive means the rest
SF-268 CNS = test system: SF-268 CNS
M14 melanoma = test system: M14 melanoma
SNB-19 CNS = test system: SNB-19 CNS
SK-MEL-28 melanoma = test system: SK-MEL-28 melanoma
ACHN renal = test system: ACHN renal
KM12 colon = test system: KM12 colon
OVCAR-8 ovarian = test system: OVCAR-8 ovarian
CCRF-CEM leukemia = test system: CCRF-CEM leukemia
UACC-257 melanoma = test system: UACC-257 melanoma
DLD-1 colon = test system: DLD-1 colon
SNB-75 CNS = test system: SNB-75 CNS
XF 498 CNS = test system: XF 498 CNS
HOP-92 NSCLC = test system: HOP-92 NSCLC
786-0 renal = test system: 786-0 renal
SN12C renal = test system: SN12C renal
CAKI-1 renal = test system: CAKI-1 renal
OVCAR-3 ovarian = test system: OVCAR-3 ovarian
DMS 114 small cell lung = test system: DMS 114 small cell lung
OVCAR-5 ovarian = test system: OVCAR-5 ovarian
NCI-H226 lung = test system: NCI-H226 lung
COLO 205 colon = test system: COLO 205 colon
SF-295 CNS = test system: SF-295 CNS
A549 NSCLC = test system: A549 NSCLC
NCI-H460 lung = test system: NCI-H460 lung
SF-539 CNS = test system: SF-539 CNS
HOP-62 NSCLC = test system: HOP-62 NSCLC
UO-31 renal = test system: UO-31 renal
SK-MEL-5 melanoma = test system: SK-MEL-5 melanoma
NCI-H23 lung = test system: NCI-H23 lung
IGROV1 ovarian = test system: IGROV1 ovarian
SW-620 colon = test system: SW-620 colon
HCT-15 colon = test system: HCT-15 colon
UACC-62 melanoma = test system: UACC-62 melanoma
TK-10 renal = test system: TK-10 renal
HCC-2998 colon = test system: HCC-2998 colon
EKVX NSCLC = test system: EKVX NSCLC
K-562 leukemia = test system: K-562 leukemia
OVCAR-4 ovarian = test system: OVCAR-4 ovarian
SR leukemia = test system: SR leukemia
MOLT-4 leukemia = test system: MOLT-4 leukemia
LOX IMVI melanoma = test system: LOX IMVI melanoma
HL-60(TB) leukemia = test system: HL-60(TB) leukemia
RPMI-8226 leukemia = test system: RPMI-8226 leukemia
RXF 393 renal = test system: RXF 393 renal
SK-OV-3 ovarian = test system: SK-OV-3 ovarian
HT29 colon = test system: HT29 colon
SK-MEL-2 melanoma = test system: SK-MEL-2 melanoma
HCT-116 colon = test system: HCT-116 colon
A498 renal = test system: A498 renal
SNB-78 CNS = test system: SNB-78 CNS
LXFL 529 NSCLC = test system: LXFL 529 NSCLC
MALME-3M melanoma = test system: MALME-3M melanoma
U251 CNS = test system: U251 CNS
KM20L2 colon = test system: KM20L2 colon
M19-MEL melanoma = test system: M19-MEL melanoma
DMS 273 small cell lung = test system: DMS 273 small cell lung
NCI-H522 lung = test system: NCI-H522 lung

Cc1ccc(NC(=O)C(=O)C(C2C(C)CC(=O)C2CC(=O)O)[N+](=O)[O-])cc1 (configuration not stated)
> 100 µM: TGI (SF-268 CNS) | TGI (M14 melanoma) | TGI (SNB-19 CNS) | TGI (SK-MEL-28 melanoma) | TGI (ACHN renal) | TGI (KM12 colon) | TGI (OVCAR-8 ovarian) | TGI (CCRF-CEM leukemia) | TGI (UACC-257 melanoma) | TGI (DLD-1 colon) | TGI (SNB-75 CNS) | TGI (XF 498 CNS) | TGI (HOP-92 NSCLC) | TGI (786-0 renal) | TGI (SN12C renal) | TGI (CAKI-1 renal) | TGI (OVCAR-3 ovarian) | TGI (DMS 114 small cell lung) | TGI (OVCAR-5 ovarian) | TGI (NCI-H226 lung) | TGI (COLO 205 colon) | TGI (SF-295 CNS) | TGI (A549 NSCLC) | TGI (NCI-H460 lung) | TGI (SF-539 CNS) | TGI (HOP-62 NSCLC) | TGI (UO-31 renal) | TGI (SK-MEL-5 melanoma) | TGI (NCI-H23 lung) | TGI (IGROV1 ovarian) | TGI (SW-620 colon) | TGI (HCT-15 colon) | TGI (UACC-62 melanoma) | TGI (TK-10 renal) | TGI (HCC-2998 colon) | TGI (EKVX NSCLC) | TGI (K-562 leukemia) | TGI (OVCAR-4 ovarian) | TGI (SR leukemia) | TGI (MOLT-4 leukemia) | TGI (LOX IMVI melanoma) | TGI (HL-60(TB) leukemia) | TGI (RPMI-8226 leukemia) | TGI (RXF 393 renal) | TGI (SK-OV-3 ovarian) | TGI (HT29 colon) | TGI (SK-MEL-2 melanoma) | TGI (HCT-116 colon) | TGI (A498 renal) | TGI (SNB-78 CNS) | TGI (LXFL 529 NSCLC) | TGI (MALME-3M melanoma) | TGI (U251 CNS) | TGI (KM20L2 colon)

[Co+2].[O-]c1ccccc1C=NCc1ccccc1.[O-]c1ccccc1C=NCc1ccccc1
82.1 µM: TGI (HL-60(TB) leukemia)
82.9 µM: TGI (UO-31 renal)
69.6 µM: TGI (SNB-75 CNS)
92.4 µM: TGI (HOP-92 NSCLC)
> 100 µM: TGI (M19-MEL melanoma) | TGI (SF-268 CNS) | TGI (M14 melanoma) | TGI (SNB-19 CNS) | TGI (DMS 273 small cell lung) | TGI (SK-MEL-28 melanoma) | TGI (ACHN renal) | TGI (KM12 colon) | TGI (OVCAR-8 ovarian) | TGI (CCRF-CEM leukemia) | TGI (UACC-257 melanoma) | TGI (DLD-1 colon) | TGI (786-0 renal) | TGI (SN12C renal) | TGI (OVCAR-3 ovarian) | TGI (DMS 114 small cell lung) | TGI (OVCAR-5 ovarian) | TGI (COLO 205 colon) | TGI (A549 NSCLC) | TGI (NCI-H522 lung) | TGI (NCI-H460 lung) | TGI (SF-539 CNS) | TGI (SK-MEL-5 melanoma) | TGI (NCI-H23 lung) | TGI (IGROV1 ovarian) | TGI (SW-620 colon) | TGI (HCT-15 colon) | TGI (UACC-62 melanoma) | TGI (TK-10 renal) | TGI (EKVX NSCLC) | TGI (K-562 leukemia) | TGI (OVCAR-4 ovarian) | TGI (MOLT-4 leukemia) | TGI (LOX IMVI melanoma) | TGI (RPMI-8226 leukemia) | TGI (SK-OV-3 ovarian) | TGI (HT29 colon) | TGI (SK-MEL-2 melanoma) | TGI (HCT-116 colon) | TGI (A498 renal) | TGI (SNB-78 CNS) | TGI (LXFL 529 NSCLC) | TGI (MALME-3M melanoma) | TGI (U251 CNS) | TGI (KM20L2 colon)
inactive: GI50 (M19-MEL melanoma) 39.8 µM | GI50 (SF-268 CNS) 11.6 µM | GI50 (M14 melanoma) 28.3 µM | GI50 (SNB-19 CNS) 59.4 µM | GI50 (DMS 273 small cell lung) 95.8 µM | GI50 (SK-MEL-28 melanoma) 6.9 µM | GI50 (ACHN renal) 31.8 µM | GI50 (KM12 colon) 67.8 µM | GI50 (OVCAR-8 ovarian) 99.2 µM | GI50 (CCRF-CEM leukemia) 6.92 µM | GI50 (UACC-257 melanoma) 35.7 µM | GI50 (DLD-1 colon) 38.8 µM | GI50 (SNB-75 CNS) 21.3 µM | GI50 (HOP-92 NSCLC) 11.1 µM | GI50 (786-0 renal) 34.7 µM | GI50 (SN12C renal) 80.1 µM | GI50 (OVCAR-3 ovarian) 8.06 µM | GI50 (DMS 114 small cell lung) 28.7 µM | GI50 (OVCAR-5 ovarian) 62.7 µM | GI50 (COLO 205 colon) 91.5 µM | GI50 (A549 NSCLC) > 100 µM | GI50 (NCI-H522 lung) 45.7 µM | GI50 (NCI-H460 lung) > 100 µM | GI50 (SF-539 CNS) 16.3 µM | GI50 (UO-31 renal) 17.1 µM | GI50 (SK-MEL-5 melanoma) 33.7 µM | GI50 (NCI-H23 lung) 51.1 µM | GI50 (IGROV1 ovarian) 64.6 µM | GI50 (SW-620 colon) 41.4 µM | GI50 (HCT-15 colon) 26.3 µM | GI50 (UACC-62 melanoma) 21.1 µM | GI50 (TK-10 renal) > 100 µM | GI50 (EKVX NSCLC) 56.6 µM | GI50 (K-562 leukemia) 32.8 µM | GI50 (OVCAR-4 ovarian) 53.8 µM | GI50 (MOLT-4 leukemia) 6.37 µM | GI50 (LOX IMVI melanoma) 77.2 µM | GI50 (HL-60(TB) leukemia) 7.85 µM | GI50 (RPMI-8226 leukemia) 31.6 µM | GI50 (SK-OV-3 ovarian) > 100 µM | GI50 (HT29 colon) 82.6 µM | GI50 (SK-MEL-2 melanoma) 55.7 µM | GI50 (HCT-116 colon) 10.6 µM | GI50 (A498 renal) > 100 µM | GI50 (SNB-78 CNS) > 100 µM | GI50 (LXFL 529 NSCLC) 17.2 µM | GI50 (MALME-3M melanoma) 21.1 µM | GI50 (U251 CNS) 47.2 µM | GI50 (KM20L2 colon) > 100 µM
